What was measured:
[1] = system: cell pools constructed using the P5CS/eGFP vector (GSKO cells); experiment: P5CS/eGFP cell pools grown without proline with P5CS inhibitor, 96 deep well plates; format: cell-based, Chinese hamster; settings: with increase in inhibitor concentration; media lacking proline; 24-216 hours
Protocol: FIGS. 8A-8F are a series of diagrams showing cell pools generated using P5CS overexpression and cultured in the absence of proline, and in the presence of L-azetidine-2-carboxylic acid, a P5CS inhibitor. L-azetidine-2-carboxylic acid was added at a variety of different concentrations and cells were cultured in 96 deep well plates for 9 days. These cells were analyzed for cell growth, as measured by viable cell concentration (FIG. 8A) and culture viability (FIG. 8B). Cells were also analyzed for mean culture fluorescence (FIG. 8C) and percentage of cells exceeding the predetermined thresholds of 10^2 (FIG. 8D) and 10^3 (FIG. 8E).
FIGS. 9A-9F are a series of diagrams showing cell pools generated using P5CS overexpression and cultured in the absence of proline, and in the presence of 3,4-dehydro-L-proline, a P5CS inhibitor. 3,4-dehydro-L-proline was added at a variety of different concentrations and cells were cultured in 96 deep well plates for 9 days. These cells were analyzed for cell growth, as measured by viable cell concentration (FIG. 9A) and culture viability (FIG. 9B). Cells were also analyzed for mean culture fluorescence (FIG. 9C) and percentage of cells exceeding the predetermined thresholds of 10^2 (FIG. 9D) and 10^3 (FIG. 9E).
FIGS. 10A-10F are a series of diagrams showing cell pools generated using P5CS overexpression and cultured in the absence of proline, and in the presence of L-4-thiazolidinecarboxylic acid, a P5CS inhibitor. L-4-thiazolidinecarboxylic acid was added at a variety of different concentrations and cells were cultured in 96 deep well plates for 9 days. These cells were analyzed for cell growth, as measured by viable cell concentration (FIG. 10A) and culture viability (FIG. 10B). Cells were also analyzed for mean culture fluorescence (FIG. 10C) and percentage of cells exceeding the predetermined thresholds of 10^2 (FIG. 10D) and 10^3 (FIG. 10E).
In order to assess the capacity of the proline/P5CS system to generate recombinant cell pools, vectors comprising the P5CS gene and a gene of interest were transfected into cells and subsequently cultured in the absence of proline in an attempt to generate recombinant cell pools. Briefly, 1×10^7 Lonza's GSKO cells were electroporated with 20 μg plasmid which was first linearized using PvuI restriction enzyme (NEB) and purified using sodium acetate and ethanol precipitation. The construct used contained both the P5CS gene for evaluation as a selection marker and eGFP as a reporter gene. Transfections were carried out in CM76 medium in the absence of proline but supplemented with L-glutamine to achieve a final concentration of 6 mM. The cells were then cultured in 25 ml of this medium in a T75 flask for 10 days before being transferred to 10 ml suspension culture, also in proline absent medium. The resulting pool was analyzed using flow cytometry. Cell samples were first centrifuged at 1,000 rpm for 5 minutes and resuspended in 500 μl PBS. Samples were then loaded onto the probe of a FACScalibur™ (BD biosciences) and fluorescence intensity was measured in relation to the cell count. The forward scatter (FSC) was measure using the E-1 amplifier and side scatter (SSC) set to 465 whilst FL1 recorded cells at 473; all settings were converted to Log scales. In order to facilitate the adherence of suspension cells, coverslips were first submerged in poly-L-lysine and incubated for 15 minutes at room temperature. Coverslips were then removed and left to dry in a sterile environment before transferring to a 24 well plate. Cells were cultured at 37° C. overnight to facilitate adhering of cells to the coverslip before aspirating the medium and adding 250 μl of 4% paraformaldehyde in PBS and incubating for 20 minutes at 37° C. to fix cells. Subsequently two 1 ml PBS washes were carried out before 250 μl 0.1% triton X100 in PBS was added and incubated for 5 minutes at room temperature to permeablize cells. […]

[2] = system: cell pools constructed using the P5CS/eGFP vector (GSKO cells); experiment: P5CS/eGFP cell pools grown without proline with P5CS inhibitor, static 24 well plates; format: cell-based, Chinese hamster; settings: with increase in inhibitor concentration; media lacking proline; 24-216 hours
Protocol: FIGS. 11A-11E are a series of diagrams showing analysis of cell pools generated using P5CS overexpression and cultured in the absence of proline, and in the presence of L-azetidine-2-carboxylic acid, a P5CS inhibitor. L-azetidine-2-carboxylic acid was added at a variety of different concentrations and cells were cultured in static 24 well plates for 9 days. These cells were analyzed for cell growth, as measured by viable cell concentration (FIG. 11A) and culture viability (FIG. 11B). Cells were also analyzed for mean culture fluorescence (FIG. 11C) and percentage of cells exceeding the predetermined thresholds of 10^2 (FIG. 11D) and 10^3 (FIG. 11E).
FIGS. 12A-12E are a series of diagrams showing analysis of cell pools generated using P5CS overexpression and cultured in the absence of proline, and in the presence of 3,4-dehydro-L-proline, a P5CS inhibitor. 3,4-dehydro-L-proline was added at a variety of different concentrations and cells were cultured in static 24 well plates for 9 days. These cells were analyzed for cell growth, as measured by viable cell concentration (FIG. 12A) and culture viability (FIG. 12B). Cells were also analyzed for mean culture fluorescence (FIG. 12C) and percentage of cells exceeding the predetermined thresholds of 10^2 (FIG. 12D) and 10^3 (FIG. 12E). […]

| SMILES | cell growth (viable cell number) [1] | mean fluorescence (eGFP) [1] | cell growth (viable cell number) [2] | mean fluorescence (eGFP) [2] |
| --- | --- | --- | --- | --- |
| O=C(O)[C@@H]1CSCN1 [L-4-thiazolidinecarboxylic acid] | slower cell growth | higher mean fluorescence |  |  |
| O=C(O)[C@@H]1C=CCN1 [3,4-dehydro-L-proline] | slower cell growth | higher mean fluorescence |  |  |
| O=C(O)[C@@H]1CCN1 [L-azetidine-2-carboxylic acid] | slower cell growth | higher mean fluorescence | slower cell growth | higher mean fluorescence |

From patent publication US12077786B2, “Methods of cell selection and modifying cell metabolism” (LONZA LTD, priority 2018, dated 2024)
